# Measurements taken from patent publication US20260240832A1, “USE OF NITROXOLINE COMPOUND IN ENHANCING EFFECT OF ANTIBACTERIAL AGENT” (Jiangsu Yahong Meditech Co., Ltd., priority 2022, published 2026).
# Read-outs that look alike come from different tables or passages of the source.
# Experiments:
# [1] = tested on: carbapenem-resistant Acinetobacter baumannii; assay: Chessboard microbroth dilution MIC/FIC, compound 2 in combination with polymyxin; format: cell-based; conditions: for MIC: Acinetobacter baumannii, read-out: Compound 2 MIC alone; for Compound 2 MIC in combination: with polymyxin; for Polymyxin MIC in combination: with compound 2
# From the text: This experiment is designed to determine the minimum inhibitory concentration (MIC) of compound 2 in combination with polymyxin against carbapenem-resistant Acinetobacter baumannii and to calculate the fractional inhibitory concentration (FIC) index.
# (§1) Test bacteria: 10 strains of carbapenem-resistant Acinetobacter baumannii are clinically isolated strains, and are provided by Shanghai Junji Medical Laboratory Co., Ltd.
# According to the recommendation of the Clinical and Laboratory Standards Institute (CLSI), the microbroth dilution method designed by the chessboard method was used to determine the minimum inhibitory concentration (MIC) of compound 2 in combination with polymyxin against the above strains, and the fractional inhibitory concentration (FIC) index was calculated.
# Compound 2 was dissolved in dimethyl sulfoxide to obtain a stock solution I with a concentration of 51200 mg/L. The stock solution I was subjected to 1:1 gradient dilution with dimethyl sulfoxide to obtain a dilution solution with a concentration range of 51200 to 25 mg/L. The corresponding concentrations were added to sterile water for 100-fold dilution to obtain working solution I with a concentration range of 512 to 0.25 mg/L.
# Polymyxin was dissolved in sterile water to obtain a stock solution with a concentration of 5120 mg/L. The […] stock solution was subjected to 1:1 gradient dilution with sterile water to obtain a working solution II with a concentration range of 512 to 0.25 mg/L.
# (§2) According to the method in Example 1, a drug sensitive plate was prepared with working solution I and working solution II, and the specific process will not be repeated here.
# (§3) (2) The culture medium of the bacterial solution: Cation-Adjusted Mueller-Hinton Broth (CAMHB), a product of BBL, USA, batch number 9015952.
# (§4) (3) Formulation method of bacterial solution: According to the direct colony suspension method, the test bacteria cultured overnight were prepared into a 0.5 McFarland turbidity tube using physiological saline. Then, the resulting solution was dilute 100 times with the above culture medium. 100 μL of the resulting bacterial solution was mixed well with the solution (100 μL) in each well of the drug sensitivity plate, and the final inoculation amount was 10^5 CFU/mL.
# (§5) (4) Culture conditions: Culturing at 35±2° C. for 20 hours in air.
# (§6) (1) The experimental results were determined according to the standard of CLSI 2020 M100 30th edition.
# (§7) wherein: FIC≤0.5 indicates synergistic effect; 0.5<FIC≤1.0 indicates additive effect; 1<FIC≤2.0 indicates irrelevant effect; and FIC>2 indicates antagonistic effect.
# [2] = tested on: carbapenem-resistant Acinetobacter baumannii; assay: Chessboard microbroth dilution MIC/FIC, compound 1 in combination with polymyxin; format: cell-based; conditions: for Polymyxin MIC in combination: with compound 1
# From the text: This experiment is designed to determine the minimum inhibitory concentration (MIC) of compound 1 in combination with polymyxin against carbapenem-resistant Acinetobacter baumannii and to calculate the fractional inhibitory concentration (FIC) index.
# as §1
# According to the recommendation of the Clinical and Laboratory Standards Institute (CLSI), the microbroth dilution method designed by the chessboard method was used to determine the minimum inhibitory concentration (MIC) of compound 1 in combination with polymyxin against the above strains, and the fractional inhibitory concentration (FIC) index was calculated.
# Compound 1 was dissolved in dimethyl sulfoxide to obtain a stock solution I with a concentration of 51200 mg/L. The stock solution I was subjected to 1:1 gradient dilution with dimethyl sulfoxide to obtain a dilution solution with a concentration range of 51200 to 25 mg/L. The corresponding concentrations were added to sterile water for 100-fold dilution to obtain working solution I with a concentration range of 512 to 0.25 mg/L.
# Polymyxin was dissolved in sterile water to obtain a stock solution with a concentration of 5120 mg/L. The polymyxin stock solution was subjected to 1:1 gradient dilution with sterile water to obtain a working solution II with a concentration range of 512 to 0.25 mg/L.
# as §2, §3, §4, §5, §6, §7
# [3] = strain 18-J11-001, compound 2 + polymyxin
# [4] = strain 18-J11-002, compound 2 + polymyxin
# [5] = strain 18-J11-034, compound 2 + polymyxin
# [6] = strain 18-J11-097, compound 2 + polymyxin
# [7] = strain 18-J15-030, compound 2 + polymyxin
# [8] = strain 18-J21-095, compound 2 + polymyxin
# [9] = strain 18-J24-015, compound 2 + polymyxin
# [10] = strain 18-J24-033, compound 2 + polymyxin
# [11] = strain 18-J40-021, compound 2 + polymyxin
# [12] = strain 18-J51-052, compound 2 + polymyxin
compound,measurement,setting,value
"O=[N+]([O-])c1c(Cl)c(F)c2cccnc2c1O [Compound 2, 5-fluoro-6-chloro-7-nitroquinolin-8-ol]",MIC,[1]; strain 18-J11-001,8 µg/mL
same,MIC,[1]; strain 18-J11-002,4 µg/mL
same,MIC,[1]; strain 18-J11-034,4 µg/mL
same,MIC,[1]; strain 18-J11-097,4 µg/mL
same,MIC,[1]; strain 18-J15-030,4 µg/mL
same,MIC,[1]; strain 18-J21-095,4 µg/mL
same,MIC,[1]; strain 18-J24-015,4 µg/mL
same,MIC,[1]; strain 18-J24-033,4 µg/mL
same,MIC,[1]; strain 18-J40-021,4 µg/mL
same,MIC,[1]; strain 18-J51-052,4 µg/mL
same,change of the MIC of polymyxin by the combination,[1]; compound 2 + polymyxin,significantly reduce
same,effect of the combination (summary of Table 3),[1]; compound 2 + polymyxin,synergistic effect or additive effect
same,FIC index,[1]; [3],0.375
same,Results,[1]; [3],Synergistic
same,Compound 2 MIC in combination,[1]; strain 18-J11-001,1 µg/mL
same,FIC index,[1]; [4],0.500
same,Results,[1]; [4],Synergistic
same,Compound 2 MIC in combination,[1]; strain 18-J11-002,1 µg/mL
same,FIC index,[1]; [5],0.750
same,Results,[1]; [5],Additive
same,Compound 2 MIC in combination,[1]; strain 18-J11-034,1 µg/mL
same,FIC index,[1]; [6],0.375
same,Results,[1]; [6],Synergistic
same,Compound 2 MIC in combination,[1]; strain 18-J11-097,0.5 µg/mL
same,FIC index,[1]; [7],0.750
same,Results,[1]; [7],Additive
same,Compound 2 MIC in combination,[1]; strain 18-J15-030,1 µg/mL
same,FIC index,[1]; [8],1.000
same,Results,[1]; [8],Additive
same,Compound 2 MIC in combination,[1]; strain 18-J21-095,2 µg/mL
same,FIC index,[1]; [9],0.500
same,Results,[1]; [9],Synergistic
same,Compound 2 MIC in combination,[1]; strain 18-J24-015,1 µg/mL
same,FIC index,[1]; [10],0.625
same,Results,[1]; [10],Additive
same,Compound 2 MIC in combination,[1]; strain 18-J24-033,2 µg/mL
same,FIC index,[1]; [11],0.500
same,Results,[1]; [11],Synergistic
same,Compound 2 MIC in combination,[1]; strain 18-J40-021,1 µg/mL
same,FIC index,[1]; [12],0.500
same,Results,[1]; [12],Synergistic
same,Compound 2 MIC in combination,[1]; strain 18-J51-052,1 µg/mL
polymyxin E [reference compound],Polymyxin MIC alone,[2]; strain 18-J11-001,0.25 µg/mL
same,Polymyxin MIC in combination,[2]; strain 18-J11-001,0.06 µg/mL
same,Polymyxin MIC alone,[2]; strain 18-J11-002,0.25 µg/mL
same,Polymyxin MIC in combination,[2]; strain 18-J11-002,0.06 µg/mL
same,Polymyxin MIC alone,[2]; strain 18-J11-034,0.5 µg/mL
same,Polymyxin MIC in combination,[2]; strain 18-J11-034,0.125 µg/mL
same,Polymyxin MIC alone,[2]; strain 18-J11-097,0.25 µg/mL
same,Polymyxin MIC in combination,[2]; strain 18-J11-097,0.06 µg/mL
same,Polymyxin MIC alone,[2]; strain 18-J15-030,0.5 µg/mL
same,Polymyxin MIC in combination,[2]; strain 18-J15-030,0.125 µg/mL
same,Polymyxin MIC alone,[2]; strain 18-J21-095,0.25 µg/mL
same,Polymyxin MIC in combination,[2]; strain 18-J21-095,0.06 µg/mL
same,Polymyxin MIC alone,[2]; strain 18-J24-015,0.5 µg/mL
same,Polymyxin MIC in combination,[2]; strain 18-J24-015,0.125 µg/mL
same,Polymyxin MIC alone,[2]; strain 18-J24-033,0.5 µg/mL
same,Polymyxin MIC in combination,[2]; strain 18-J24-033,0.125 µg/mL
same,Polymyxin MIC alone,[2]; strain 18-J40-021,1 µg/mL
same,Polymyxin MIC in combination,[2]; strain 18-J40-021,0.125 µg/mL
same,Polymyxin MIC alone,[2]; strain 18-J51-052,0.5 µg/mL
same,Polymyxin MIC in combination,[2]; strain 18-J51-052,0.125 µg/mL
same,Polymyxin MIC alone,[1]; strain 18-J11-001,0.5 µg/mL
same,Polymyxin MIC in combination,[1]; strain 18-J11-001,0.125 µg/mL
same,Polymyxin MIC alone,[1]; strain 18-J11-002,1 µg/mL
same,Polymyxin MIC in combination,[1]; strain 18-J11-002,0.25 µg/mL
same,Polymyxin MIC alone,[1]; strain 18-J11-034,0.5 µg/mL
same,Polymyxin MIC in combination,[1]; strain 18-J11-034,0.25 µg/mL
same,Polymyxin MIC alone,[1]; strain 18-J11-097,0.5 µg/mL
same,Polymyxin MIC in combination,[1]; strain 18-J11-097,0.125 µg/mL
same,Polymyxin MIC alone,[1]; strain 18-J15-030,0.5 µg/mL
same,Polymyxin MIC in combination,[1]; strain 18-J15-030,0.25 µg/mL
same,Polymyxin MIC alone,[1]; strain 18-J21-095,0.5 µg/mL
same,Polymyxin MIC in combination,[1]; strain 18-J21-095,0.25 µg/mL
same,Polymyxin MIC alone,[1]; strain 18-J24-015,1 µg/mL
same,Polymyxin MIC in combination,[1]; strain 18-J24-015,0.25 µg/mL
same,Polymyxin MIC alone,[1]; strain 18-J24-033,1 µg/mL
same,Polymyxin MIC in combination,[1]; strain 18-J24-033,0.125 µg/mL
same,Polymyxin MIC alone,[1]; strain 18-J40-021,1 µg/mL
same,Polymyxin MIC in combination,[1]; strain 18-J40-021,0.25 µg/mL
same,Polymyxin MIC alone,[1]; strain 18-J51-052,1 µg/mL
same,Polymyxin MIC in combination,[1]; strain 18-J51-052,0.25 µg/mL
